Experimental data as given in patent US10246429B2, “Vinyl fluoride cyclopropyl fused thiazin-2-amine compounds as beta-secretase inhibitors and methods of use” (AMGEN INC., priority 2015, dated 2019).

Key:
BACE1 [1] = biological target: T1, BACE1 (Homo sapiens (Human), UniProt P56817); experiment: In vitro enzymatic BACE1 FRET assay; format: biochemical; settings: read-out: IC50 IP (μM) BACE1 Enzyme
Target sequence in this assay (P56817 46-501): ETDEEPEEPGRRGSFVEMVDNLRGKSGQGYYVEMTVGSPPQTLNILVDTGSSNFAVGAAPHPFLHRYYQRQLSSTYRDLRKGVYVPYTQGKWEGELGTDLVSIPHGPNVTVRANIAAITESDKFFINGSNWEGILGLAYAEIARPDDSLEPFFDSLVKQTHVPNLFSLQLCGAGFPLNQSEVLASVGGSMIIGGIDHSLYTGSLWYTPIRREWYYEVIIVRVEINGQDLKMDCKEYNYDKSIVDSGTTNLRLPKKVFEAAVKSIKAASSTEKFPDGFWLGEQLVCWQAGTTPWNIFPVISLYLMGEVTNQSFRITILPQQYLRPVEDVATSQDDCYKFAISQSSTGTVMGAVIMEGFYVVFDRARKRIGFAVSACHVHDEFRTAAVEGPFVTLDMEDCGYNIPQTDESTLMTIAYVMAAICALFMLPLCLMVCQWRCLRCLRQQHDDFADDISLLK
Source text: (§1) In Vitro Enzymatic BACE1 and BACE2 FRET (Fluorescence Resonance Energy Transfer) Assays (Enzyme Assay Data in Table 1)

BACE1 [2] = biological target: T1, BACE1; experiment: BACE1 cell assay; format: cell-based
Target sequence in this assay (P56817 46-501, species assumed): as the sequence (P56817 46-501) above

BACE2 = BACE2 (Homo sapiens (Human), UniProt Q9Y5Z0); experiment: In vitro enzymatic BACE2 FRET assay; format: biochemical; settings: read-out: IC50 IP (μM) BACE2 Enzyme
Source text: as §1

Cathepsin D (CatD) = Cathepsin D (CatD) (Homo sapiens (Human), UniProt P07339); experiment: CatD assay; format: biochemical; settings: read-out: IC50 IP (μM) CatD
[3] = read-out: IC50 IP (μM) BACE1 Cell

Sequence of Cathepsin D (CatD) (P07339 65-412, species assumed): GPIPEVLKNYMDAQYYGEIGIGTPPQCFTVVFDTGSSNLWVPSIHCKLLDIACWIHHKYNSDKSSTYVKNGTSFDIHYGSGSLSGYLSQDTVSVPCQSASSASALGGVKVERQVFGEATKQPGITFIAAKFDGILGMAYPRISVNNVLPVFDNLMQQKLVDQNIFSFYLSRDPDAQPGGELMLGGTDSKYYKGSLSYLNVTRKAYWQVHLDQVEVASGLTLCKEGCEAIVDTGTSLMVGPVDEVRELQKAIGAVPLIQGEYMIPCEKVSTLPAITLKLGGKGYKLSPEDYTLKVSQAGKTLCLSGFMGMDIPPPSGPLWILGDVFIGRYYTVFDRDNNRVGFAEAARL
Sequence of BACE2 (Q9Y5Z0 63-518): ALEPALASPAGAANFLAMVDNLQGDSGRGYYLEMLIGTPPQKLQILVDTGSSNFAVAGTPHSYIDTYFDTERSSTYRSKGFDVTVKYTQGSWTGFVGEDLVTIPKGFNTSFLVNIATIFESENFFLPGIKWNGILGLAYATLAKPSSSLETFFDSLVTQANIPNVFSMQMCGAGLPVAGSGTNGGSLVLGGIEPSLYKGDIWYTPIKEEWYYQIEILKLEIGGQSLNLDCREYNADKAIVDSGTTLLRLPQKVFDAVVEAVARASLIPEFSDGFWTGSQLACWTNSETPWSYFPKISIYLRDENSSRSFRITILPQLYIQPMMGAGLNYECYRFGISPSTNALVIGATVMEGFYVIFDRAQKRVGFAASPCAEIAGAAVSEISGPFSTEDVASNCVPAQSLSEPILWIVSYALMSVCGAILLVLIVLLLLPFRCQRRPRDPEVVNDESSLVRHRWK

For C[C@@H]1CN(C(=O)[C@]23C[C@H]2[C@@](C)(c2cc(/C=C(\F)c4ccc(C#N)cn4)ccc2F)N=C(N)S3)[C@H](C)CO1 [Example 330, 6-((Z)-2-(3-((1S,5S,6S)-3-amino-1-((2R,5R)-2,5-dimethylmorpholine-4-carbonyl)-5-methyl-2-thia-4-azabicyclo[4.1.0]hept-3-en-5-yl)-4-fluorophenyl)-1-fluorovinyl)nicotinonitrile], the IC50 (BACE1 [1]) was 0.0086 µM, the IC50 (BACE1 [2]; [3]) was 0.0177 µM and the IC50 (BACE2) was 0.239 µM. The IC50 (Cathepsin D (CatD)) was 138 µM.
CN(C)C(=O)[C@]12C[C@H]1[C@@](C)(c1cc(/C=C(\F)c3cnc(OCC#N)cn3)ccc1F)N=C(N)S2 [Example 158, (1S,5S,6S)-3-amino-5-(5-((Z)-2-(5-(cyanomethoxy)pyrazin-2-yl)-2-fluorovinyl)-2-fluorophenyl)-N,N,5-trimethyl-2-thia-4-azabicyclo[4.1.0]hept-3-ene-1-carboxamide] showed an IC50 (BACE1 [1]) of 0.116 µM, an IC50 (BACE1 [2]; [3]) of 0.119 µM and an IC50 (BACE2) of 0.0927 µM. For the same compound, the IC50 (Cathepsin D (CatD)) was 400 µM.
CC#CCOc1cnc(/C(F)=C/c2cnc(F)c([C@@]3(C)N=C(N)S[C@@]4(C(=O)N(C)C)C[C@H]43)c2)cn1 [Example 289, (1S,5S,6S)-3-amino-5-(5-((Z)-2-(5-(but-2-yn-1-yloxy)pyrazin-2-yl)-2-fluorovinyl)-2-fluoropyridin-3-yl)-N,N,5-trimethyl-2-thia-4-azabicyclo[4.1.0]hept-3-ene-1-carboxamide] was tested, and the IC50 (BACE1 [1]) was 0.0008 µM, the IC50 (BACE1 [2]; [3]) was 0.002 µM and the IC50 (BACE2) was 0.022 µM. It also gave an IC50 (Cathepsin D (CatD)) of 227 µM.
For CNC(=O)[C@]12C[C@H]1[C@@](C)(c1cc(/C=C(\F)c3cnc(Cl)cn3)ccc1F)N=C(N)S2 [Example 352, (1S,5S,6S)-3-amino-5-(5-((Z)-2-(5-chloropyrazin-2-yl)-2-fluorovinyl)-2-fluorophenyl)-N,5-dimethyl-2-thia-4-azabicyclo[4.1.0]hept-3-ene-1-carboxamide], the IC50 (BACE1 [1]) was 0.007 µM, the IC50 (BACE1 [2]; [3]) was 0.006 µM and the IC50 (BACE2) was 0.029 µM. For the same compound, the IC50 (Cathepsin D (CatD)) was 101 µM.
C#C[C@H](C)Oc1cnc(/C(F)=C/c2ccc(F)c([C@@]3(C)N=C(N)S[C@@]4(S(C)(=O)=O)C[C@H]43)c2)cn1 [Example 232, (1R,5S,6S)-5-(5-((Z)-2-(5-((S)-but-3-yn-2-yloxy)pyrazin-2-yl)-2-fluorovinyl)-2-fluorophenyl)-5-methyl-1-(methylsulfonyl)-2-thia-4-azabicyclo[4.1.0]hept-3-en-3-amine] gave an IC50 (BACE1 [1]) of 0.001 µM, an IC50 (BACE1 [2]; [3]) of 0.0395 µM and an IC50 (BACE2) of 0.108 µM. For the same compound, the IC50 (Cathepsin D (CatD)) was 88.5 µM.
CN(C)C(=O)[C@]12C[C@H]1[C@@](C)(c1cc(/C(F)=C/c3ccc(Cl)cn3)ccc1F)N=C(N)S2 [Example 185, (1S,5S,6S)-3-amino-5-(5-((Z)-2-(5-chloropyridin-2-yl)-1-fluorovinyl)-2-fluorophenyl)-N,N,5-trimethyl-2-thia-4-azabicyclo[4.1.0]hept-3-ene-1-carboxamide] showed an IC50 (BACE1 [1]) of 0.132 µM, an IC50 (BACE1 [2]) of 0.695 µM and an IC50 (BACE2) of 0.0764 µM. For the same compound, the IC50 (Cathepsin D (CatD)) was 172 µM.
For CNC(=O)[C@]12C[C@H]1[C@@](C)(c1cc(/C=C(\F)c3cnc(OCC(C)=O)cn3)ccc1F)N=C(N)S2 [Example 152, (1S,5S,6S)-3-amino-5-(2-fluoro-5-((Z)-2-fluoro-2-(5-(2-oxopropoxy)pyrazin-2-yl)vinyl)phenyl)-N,5-dimethyl-2-thia-4-azabicyclo[4.1.0]hept-3-ene-1-carboxamide], the IC50 (BACE1 [1]) was 0.052 µM, the IC50 (BACE1 [2]; [3]) was 0.0846 µM and the IC50 (BACE2) was 1.51 µM. For the same compound, the IC50 (Cathepsin D (CatD)) was 71.8 µM.
CC#CCOc1cnc(/C(F)=C/c2ccc(F)c([C@@]3(C)N=C(N)S[C@@]4(C#N)C[C@H]43)c2)cn1 [Example 244, (1S,5S,6S)-3-amino-5-(5-((Z)-2-(5-(but-2-yn-1-yloxy)pyrazin-2-yl)-2-fluorovinyl)-2-fluorophenyl)-5-methyl-2-thia-4-azabicyclo[4.1.0]hept-3-ene-1-carbonitrile] gave an IC50 (BACE1 [1]) of 0.0004 µM, an IC50 (BACE1 [2]; [3]) of 0.0147 µM and an IC50 (BACE2) of 0.055 µM. It also gave an IC50 (Cathepsin D (CatD)) of 150 µM.
In the case of CNC(=O)[C@]12C[C@H]1[C@@](C)(c1cc(/C=C(\F)c3cnc(C#CCF)cn3)ccc1F)N=C(N)S2 [Example 363, (1S,5S,6S)-3-amino-5-(2-fluoro-5-((Z)-2-fluoro-2-(5-(3-fluoroprop-1-yn-1-yl)pyrazin-2-yl)vinyl)phenyl)-N,5-dimethyl-2-thia-4-azabicyclo[4.1.0]hept-3-ene-1-carboxamide], the IC50 (BACE1 [1]) is reported as 0.01 µM, the IC50 (BACE1 [2]; [3]) is reported as 1.34 µM and the IC50 (BACE2) is reported as 0.152 µM. The IC50 (Cathepsin D (CatD)) was > 400 µM.
For CN(C)C(=O)[C@]12C[C@H]1[C@@](C)(c1cc(/C=C(\F)c3ncc4c(n3)OCCO4)ccc1F)N=C(N)S2 [Example 250, (1S,5S,6S)-3-amino-5-(5-((Z)-2-(6,7-dihydro-[1,4]dioxino[2,3-d]pyrimidin-2-yl)-2-fluorovinyl)-2-fluorophenyl)-N,N,5-trimethyl-2-thia-4-azabicyclo[4.1.0]hept-3-ene-1-carboxamide], the IC50 (BACE1 [1]) was 0.029 µM, the IC50 (BACE1 [2]; [3]) was 0.017 µM and the IC50 (BACE2) was 0.076 µM. The IC50 (Cathepsin D (CatD)) was 368 µM.
With CC(C)[C@@H]1COCCN1C(=O)[C@]12C[C@H]1[C@@](C)(c1cc(/C=C(\F)c3ccc(C#N)cn3)ccc1F)N=C(N)S2 [Example 322, 6-((Z)-2-(3-((1S,5S,6S)-3-amino-1-((R)-3-isopropylmorpholine-4-carbonyl)-5-methyl-2-thia-4-azabicyclo[4.1.0]hept-3-en-5-yl)-4-fluorophenyl)-1-fluorovinyl)nicotinonitrile] the IC50 (BACE1 [1]) was 0.0021 µM, the IC50 (BACE1 [2]; [3]) was 0.0026 µM and the IC50 (BACE2) was 0.03 µM. The IC50 (Cathepsin D (CatD)) was 27.8 µM.
Compound C[C@]1(c2cc(/C=C(\F)c3ccc(Br)cn3)ccc2F)N=C(N)S[C@@]2(C(=O)N3CCOCC3)C[C@H]21 [Example 338, ((1S,5S,6S)-3-amino-5-(5-((Z)-2-(5-bromopyridin-2-yl)-2-fluorovinyl)-2-fluorophenyl)-5-methyl-2-thia-4-azabicyclo[4.1.0]hept-3-en-1-yl)(morpholino)methanone] has an IC50 (BACE1 [1]) of 0.0011 µM, an IC50 (BACE1 [2]; [3]) of 0.0034 µM and an IC50 (BACE2) of 0.005 µM. It also gave an IC50 (Cathepsin D (CatD)) of 353 µM.
C[C@]1(c2cc(/C=C(\F)c3ccc(C#N)cn3)ccc2F)N=C(N)S[C@@]2(C(=O)N3CCC(F)(F)CC3)C[C@H]21 [Example 325, 6-((Z)-2-(3-((1S,5S,6S)-3-amino-1-(4,4-difluoropiperidine-1-carbonyl)-5-methyl-2-thia-4-azabicyclo[4.1.0]hept-3-en-5-yl)-4-fluorophenyl)-1-fluorovinyl)nicotinonitrile] gave an IC50 (BACE1 [1]) of 0.0019 µM, an IC50 (BACE1 [2]; [3]) of 0.0042 µM and an IC50 (BACE2) of 0.089 µM. The IC50 (Cathepsin D (CatD)) was 446 µM.
Compound COC[C@]12C[C@H]1[C@@](C)(c1cc(/C=C(\F)c3cnc(OCC4CC4)cn3)ccc1F)N=C(N)S2 [Example 270] has an IC50 (BACE1 [1]) of 0.659 µM, an IC50 (BACE1 [2]; [3]) of 5.12 µM and an IC50 (BACE2) of 1.22 µM. It also gave an IC50 (Cathepsin D (CatD)) of 211 µM.
CC#C/C(F)=C/c1ccc(F)c([C@@]2(C)N=C(N)S[C@@]3(C(=O)N(C)C)C[C@H]32)c1 [Example 209, (1S,5S,6S)-3-amino-5-(2-fluoro-5-((Z)-2-fluoropent-1-en-3-yn-1-yl)phenyl)-N,N,5-trimethyl-2-thia-4-azabicyclo[4.1.0]hept-3-ene-1-carboxamide] showed an IC50 (BACE1 [1]) of 0.094 µM, an IC50 (BACE1 [2]; [3]) of 0.324 µM and an IC50 (BACE2) of 0.01 µM. For the same compound, the IC50 (Cathepsin D (CatD)) was 56 µM.
Work on C[C@]1(c2cc(/C=C(\F)c3ccc(Cl)cn3)ccc2F)N=C(N)S[C@@]2(CC#N)C[C@H]21 [Example 114, 2-((1R,5S,6S)-3-amino-5-(5-((Z)-2-(5-chloropyridin-2-yl)-2-fluorovinyl)-2-fluorophenyl)-5-methyl-2-thia-4-azabicyclo[4.1.0]hept-3-en-1-yl)acetonitrile] yielded an IC50 (BACE1 [1]) of 0.021 µM, an IC50 (BACE1 [2]; [3]) of 0.446 µM and an IC50 (BACE2) of 0.0555 µM. The IC50 (Cathepsin D (CatD)) was 668 µM.
CN(C)C(=O)[C@]12C[C@H]1[C@@](C)(c1cc(/C=C(\F)c3cnc(OCC4COC4)cn3)ccc1F)N=C(N)S2 [Example 212, (1S,5S,6S)-3-amino-5-(2-fluoro-5-((Z)-2-fluoro-2-(5-(oxetan-3-ylmethoxy)pyrazin-2-yl)vinyl)phenyl)-N,N,5-trimethyl-2-thia-4-azabicyclo[4.1.0]hept-3-ene-1-carboxamide] showed an IC50 (BACE1 [1]) of 0.076 µM, an IC50 (BACE1 [2]; [3]) of 0.065 µM and an IC50 (BACE2) of 0.077 µM. The IC50 (Cathepsin D (CatD)) was 202 µM.
Work on C[C@H]1[C@@H](F)CCN1C(=O)[C@]12C[C@H]1[C@@](C)(c1cc(/C=C(\F)c3ccc(C#N)cn3)ccc1F)N=C(N)S2 [Example 306, 6-((Z)-2-(3-((1S,5S,6S)-3-amino-1-((2S,3S)-3-fluoro-2-methylpyrrolidine-1-carbonyl)-5-methyl-2-thia-4-azabicyclo[4.1.0]hept-3-en-5-yl)-4-fluorophenyl)-1-fluorovinyl)nicotinonitrile] yielded an IC50 (BACE1 [1]) of 0.002 µM, an IC50 (BACE1 [2]; [3]) of 0.001 µM and an IC50 (BACE2) of 0.111 µM. The IC50 (Cathepsin D (CatD)) was 16.2 µM.
C[C@]1(c2cc(/C=C(\F)c3cnc(C#CC4CC4)cn3)ccc2F)N=C(N)S[C@@]2(C(=O)N3CCOCC3)C[C@H]21 [Example 353, ((1S,5S,6S)-3-amino-5-(5-((Z)-2-(5-(cyclopropylethynyl)pyrazin-2-yl)-2-fluorovinyl)-2-fluorophenyl)-5-methyl-2-thia-4-azabicyclo[4.1.0]hept-3-en-1-yl)(morpholino)methanone] gave an IC50 (BACE1 [1]) of 0.002 µM, an IC50 (BACE1 [2]; [3]) of 0.014 µM and an IC50 (BACE2) of 0.145 µM. For the same compound, the IC50 (Cathepsin D (CatD)) was 61 µM.
With CC1(C)CC2CC(C)(CN2C(=O)[C@]23C[C@H]2[C@@](C)(c2cc(/C=C(\F)c4ccc(C#N)cn4)ccc2F)N=C(N)S3)C1 (stereo partly drawn) [Example 136, 6-((Z)-2-(3-((1S,5S,6S)-3-amino-5-methyl-1-(1,3,3-trimethyl-6-azabicyclo[3.2.1]octane-6-carbonyl)-2-thia-4-azabicyclo[4.1.0]hept-3-en-5-yl)-4-fluorophenyl)-1-fluorovinyl)nicotinonitrile] the IC50 (BACE1 [1]) was 0.00582 µM, the IC50 (BACE1 [2]; [3]) was 0.0154 µM and the IC50 (BACE2) was 0.0363 µM. For the same compound, the IC50 (Cathepsin D (CatD)) was 4.18 µM.
